# Experimental data published in ChEMBL document CHEMBL1154105, “Optimization of peptide-based inhibitors of prostate-specific antigen (PSA) as targeted imaging agents for prostate cancer” (Bioorg Med Chem, 2009).
# Starred links: 1 amine or outer side, 2 acyl side, 3 side chain; linkers in the order of their positions; H or OH if unused. Non-standard residues stand in square brackets, D forms with d. Residues, ends and D or L forms follow the SMILES beside them. *: point of attachment. Ala(imidazol-2-yl) = N[C@@H](Cc1ncc[nH]1)C(=O)O; X2 = C[C@@H](C(=O)[*:2])N(c1ccc2ccccc2c1)[*:1]; Phe(4-Br) = N[C@@H](Cc1ccc(Br)cc1)C(=O)O; N(cHex)Ala = C[C@H](NC1CCCCC1)C(=O)O; Pro(3R-OH) = O=C(O)[C@H]1NCC[C@H]1O; hIle = CC[C@H](C)C[C@H](N)C(=O)O; Met(O) = CS(=O)CC[C@H](N)C(=O)O; boroLeu = CC(C)C[C@H](N*)B(O)O; NPhGly = O=C(O)CNc1ccccc1; Cbz = O=C(OCc1ccccc1)*; tBu = CC(C)(C)*
# Test system: not listed separately
# Assay: Selectivity ratio of Ki for chymotrypsin to Ki for prostate-specific antigen
# Conditions: Prostate gland
row,Ratio Ki,SMILES
1,60,CC(C)C[C@H](NC(=O)[C@H](CC(C)C)NC(=O)[C@H](CCCCN)NC(=O)[C@H](CO)NC(=O)[C@H](CO)NC(=O)OCc1ccccc1)B(O)O (Cbz-SSKL-boroLeu)

# Target: T1, Prostate-specific antigen (Homo sapiens, UniProt P07288);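 also: Fluorescence-based readout of substrate cleavage by prostate-specific antigen, used to gauge enzyme inhibition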
# T1 sequence (P07288 whole entry): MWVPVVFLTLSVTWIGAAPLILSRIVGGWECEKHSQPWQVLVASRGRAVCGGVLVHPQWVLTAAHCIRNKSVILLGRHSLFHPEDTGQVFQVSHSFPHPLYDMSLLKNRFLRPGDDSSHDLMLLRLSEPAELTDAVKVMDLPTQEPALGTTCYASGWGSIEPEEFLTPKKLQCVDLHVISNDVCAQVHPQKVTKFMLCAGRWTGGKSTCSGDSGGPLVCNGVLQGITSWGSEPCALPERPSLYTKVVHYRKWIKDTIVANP
# Assay: biochemical
# Format: tissue-based, Prostate gland
# Conditions: not given
row,Ki [µM],SMILES
1,> 100,CC(C)C[C@@H](C=O)NC(=O)[C@H](C)NC(=O)[C@H](CCCCN)NC(=O)[C@H](CO)NC(=O)[C@H](CO)NC(=O)OCc1ccccc1 (Cbz-SSKAL-aldehyde)
2,25.9,CC(C)C[C@@H](C=O)NC(=O)[C@H](CC(C)C)NC(=O)[C@H](CC[S+](C)[O-])NC(=O)[C@H](CO)NC(=O)[C@H](CO)NC(=O)OCc1ccccc1 (stereo partly specified) (Cbz-SS[Met(O)]LL-aldehyde)
3,> 1000,CC(C)C[C@@H](C=O)NC(=O)[C@H](CC(C)C)NC(=O)[C@H](CCC(=O)O)NC(=O)[C@H](CO)NC(=O)[C@H](CO)NC(=O)OCc1ccccc1 (Cbz-SSELL-aldehyde)
4,> 1000,CC(C)C[C@@H](C=O)NC(=O)CNC(=O)[C@H](CCCCN)NC(=O)[C@H](CO)NC(=O)[C@H](CO)NC(=O)OCc1ccccc1 (Cbz-SSKGL-aldehyde)
5,> 50,CC(C)C[C@@H](C=O)NC(=O)[C@H](CSC(C)(C)C)NC(=O)[C@H](CCCCN)NC(=O)[C@H](CO)NC(=O)[C@H](CO)NC(=O)OCc1ccccc1 (Cbz-SSKC(tBu)L-aldehyde)
6,7.5,CSCC[C@H](NC(=O)[C@H](CO)NC(=O)[C@H](CO)NC(=O)OCc1ccccc1)C(=O)N[C@@H](CC(C)C)C(=O)N[C@H](C=O)CC(C)C (Cbz-SSMLL-aldehyde)
7,> 50,CC(C)C[C@@H](C=O)NC(=O)[C@H](CCCCN)NC(=O)[C@H](CCCCN)NC(=O)[C@H](CO)NC(=O)[C@H](CO)NC(=O)OCc1ccccc1 (Cbz-SSKKL-aldehyde)
8,13.1,CC(C)C[C@@H](C=O)NC(=O)[C@H](CC(C)C)NC(=O)[C@H](C)N(C(=O)[C@H](CO)NC(=O)[C@H](CO)NC(=O)OCc1ccccc1)C1CCCCC1 (Cbz-SS[N(cHex)Ala]LL-aldehyde)
9,> 500,CC(C)C[C@@H](C=O)NC(=O)[C@@H]1[C@H](O)CCN1C(=O)[C@H](CCCCN)NC(=O)[C@H](CO)NC(=O)[C@H](CO)NC(=O)OCc1ccccc1 (Cbz-SSK[Pro(3R-OH)]L-aldehyde)
10,43.8,CC(C)C[C@@H](C=O)NC(=O)[C@H](CC(C)C)NC(=O)[C@@H](NC(=O)[C@H](CO)NC(=O)[C@H](CO)NC(=O)OCc1ccccc1)[C@@H](C)O (Cbz-SSTLL-aldehyde)
11,> 500,CC(C)C[C@@H](C=O)NC(=O)[C@@H]1CCCN1C(=O)[C@H](CCCCN)NC(=O)[C@H](CO)NC(=O)[C@H](CO)NC(=O)OCc1ccccc1 (Cbz-SSKPL-aldehyde)

# Further lines, the compound ahead of its results:
row,SMILES,Ki [µM]
1,CC(C)C[C@@H](C=O)NC(=O)[C@H](Cc1ncc[nH]1)NC(=O)[C@H](CCCCN)NC(=O)[C@H](CO)NC(=O)[C@H](CO)NC(=O)OCc1ccccc1 (Cbz-SSK[Ala(imidazol-2-yl)]L-aldehyde),18.6
2,CC(C)C[C@@H](C=O)NC(=O)[C@@H](NC(=O)[C@H](CCCCN)NC(=O)[C@H](CO)NC(=O)[C@H](CO)NC(=O)OCc1ccccc1)C(C)C (Cbz-SSKVL-aldehyde),> 50
3,CC(C)C[C@@H](C=O)NC(=O)[C@H](C)N(C(=O)[C@H](CCCCN)NC(=O)[C@H](CO)NC(=O)[C@H](CO)NC(=O)OCc1ccccc1)c1ccc2ccccc2c1 (Cbz-SSK[X2]L-aldehyde),> 100
4,CC(C)C[C@@H](C=O)NC(=O)[C@H](CC(C)C)NC(=O)[C@@H]1CCCN1C(=O)[C@H](CO)NC(=O)[C@H](CO)NC(=O)OCc1ccccc1 (Cbz-SSPLL-aldehyde),> 1000
5,CC(C)C[C@@H](C=O)NC(=O)[C@H](CC(C)C)NC(=O)[C@H](CCC(N)=O)NC(=O)[C@H](CO)NC(=O)[C@H](CO)NC(=O)OCc1ccccc1 (Cbz-SSQLL-aldehyde),3.9
6,CC(C)C[C@@H](C=O)NC(=O)CN(C(=O)[C@H](CCCCN)NC(=O)[C@H](CO)NC(=O)[C@H](CO)NC(=O)OCc1ccccc1)c1ccccc1 (Cbz-SSK[NPhGly]L-aldehyde),> 50
7,CC(C)C[C@@H](C=O)NC(=O)[C@H](CCC(N)=O)NC(=O)[C@H](CCCCN)NC(=O)[C@H](CO)NC(=O)[C@H](CO)NC(=O)OCc1ccccc1 (Cbz-SSKQL-aldehyde),21.8
8,CC(C)C[C@@H](C=O)NC(=O)[C@H](CC(=O)O)NC(=O)[C@H](CCCCN)NC(=O)[C@H](CO)NC(=O)[C@H](CO)NC(=O)OCc1ccccc1 (Cbz-SSKDL-aldehyde),> 1000
9,CC(C)C[C@@H](C=O)NC(=O)[C@H](CO)NC(=O)[C@H](CCCCN)NC(=O)[C@H](CO)NC(=O)[C@H](CO)NC(=O)OCc1ccccc1 (Cbz-SSKSL-aldehyde),> 50
10,CC(C)C[C@@H](C=O)NC(=O)[C@H](CC(C)C)NC(=O)[C@H](CC(N)=O)NC(=O)[C@H](CO)NC(=O)[C@H](CO)NC(=O)OCc1ccccc1 (Cbz-SSNLL-aldehyde),18.2
11,CC[C@H](C)C[C@H](NC(=O)[C@H](CCCCN)NC(=O)[C@H](CO)NC(=O)[C@H](CO)NC(=O)OCc1ccccc1)C(=O)N[C@H](C=O)CC(C)C (Cbz-SSK[hIle]L-aldehyde),37.4
12,CC(C)C[C@@H](C=O)NC(=O)[C@H](Cc1ccc(Br)cc1)NC(=O)[C@H](CCCCN)NC(=O)[C@H](CO)NC(=O)[C@H](CO)NC(=O)OCc1ccccc1 (Cbz-SSK[Phe(4-Br)]L-aldehyde),> 500
13,CC(C)C[C@@H](C=O)NC(=O)[C@H](C)N(C(=O)[C@H](CCCCN)NC(=O)[C@H](CO)NC(=O)[C@H](CO)NC(=O)OCc1ccccc1)C1CCCCC1 (Cbz-SSK[N(cHex)Ala]L-aldehyde),> 50
14,CC(C)C[C@@H](C=O)NC(=O)[C@H](CC(C)C)NC(=O)CNC(=O)[C@H](CO)NC(=O)[C@H](CO)NC(=O)OCc1ccccc1 (Cbz-SSGLL-aldehyde),> 1000
